The target of assay [1] is T1, Bile acid receptor (Homo sapiens, UniProt Q96RI1).
T1 sequence (Q96RI1 whole entry): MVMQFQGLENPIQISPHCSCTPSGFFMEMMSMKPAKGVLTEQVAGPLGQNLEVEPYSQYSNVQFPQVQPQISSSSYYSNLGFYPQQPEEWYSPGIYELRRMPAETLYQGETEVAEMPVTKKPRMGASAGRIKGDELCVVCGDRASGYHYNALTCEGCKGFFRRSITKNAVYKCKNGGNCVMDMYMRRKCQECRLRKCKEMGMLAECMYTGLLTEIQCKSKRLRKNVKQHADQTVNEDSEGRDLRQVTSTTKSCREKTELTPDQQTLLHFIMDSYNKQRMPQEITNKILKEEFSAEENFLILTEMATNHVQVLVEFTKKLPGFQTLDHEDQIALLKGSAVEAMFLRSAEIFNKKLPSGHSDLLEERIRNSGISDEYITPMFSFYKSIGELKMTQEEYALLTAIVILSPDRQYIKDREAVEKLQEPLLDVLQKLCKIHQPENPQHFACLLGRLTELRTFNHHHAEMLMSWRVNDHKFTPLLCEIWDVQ
Description: Agonist activity at human full length FXR transfected in HEK293 cells coexpressing pTRexDest/pGL2promotor assessed as luciferase activity by direct reporter cellular assay. Type of assay: functional, cell-based.

Assay [2] addresses T1, Bile acid receptor. The assay can be described thus: Agonist activity at human GST-fused FXR LBD assessed as cofactor peptide interaction with receptor ligand binding domain by FRET assay.
Assay [3] addresses T2, Bile acid receptor (Homo sapiens) (UniProt Q96RI1).
T2 sequence (whole entry): T1 sequence (Q96RI1 whole entry)
The assay can be described thus: Agonist activity at human full length FXR transfected in HEK293 cells coexpressing pTRexDest/pGL2promotor assessed as luciferase activity by direct reporter cellular assay relative to GW-4064. It counts as functional, cell-based.

Assay [4] concerns the target T1, Bile acid receptor. The assay can be described thus: Agonist activity at human […] FXR LBD expressed in HEK293 cells coexpressing GAL4-DNA bindig domain and pFRluc by mammalian one-hybrid assay. It counts as functional, cell-based.
In assay [5] the target is T2, Bile acid receptor (Homo sapiens). The assay can be described thus: Agonist activity at human […] FXR LBD expressed in HEK293 cells coexpressing GAL4-DNA bindig domain and pFRluc by mammalian one-hybrid assay relative to GW-4064. It counts as functional, cell-based.
For assay [6] the target is unchanged. Description: Agonist activity at human GST-fused FXR LBD assessed as cofactor peptide interaction with receptor ligand binding domain by FRET assay relative to GW-4064.

Drawing on ChEMBL document CHEMBL1208782, “Synthesis and pharmacological validation of a novel series of non-steroidal FXR agonists” (Bioorg Med Chem Lett, 2010), this text covers EC50 and Efficacy for 23 molecules.

Molecules are shown by their SMILES.

For the molecule `CC(C)c1onc(-c2c(Cl)cccc2Cl)c1COc1ccc(NC(=O)c2ccc(C(=O)O)cc2)c(C(F)(F)F)n1`, the concentration for a half-maximal effect (EC50) (usually the concentration giving half of the maximal effect) amounted to 385 nM at Bile acid receptor [1] (read-out: EC50), 452 nM on Bile acid receptor [2] and 474 nM on Bile acid receptor [4] (read-out: EC50). Moreover, the figures for the Efficacy in assay [3], in assay [5] and in assay [6] were 48%, 21% and 109%, respectively.

For `Cc1cc(OCc2c(-c3c(Cl)cccc3Cl)noc2C(C)C)ncc1[N+](=O)[O-]`, the results for the Efficacy in assay [3], in assay [5] and in assay [6] were 76%, 58% and 101%, respectively.

As to `CC(Oc1cccc(C(=O)O)c1)c1ccc(OCc2c(-c3c(Cl)cccc3Cl)noc2C2CC2)nc1C(F)(F)F` (stereo unspecified), the half-maximal effective concentration (EC50) on Bile acid receptor [1] (read-out: EC50) was 58 nM; at Bile acid receptor [2], 155 nM; at Bile acid receptor [4] (read-out: EC50) it was 107 nM. For the same molecule, the Efficacy worked out at 49% in assay [3], 50% in assay [5] and 102% in assay [6].

In the case of `CC(C)c1onc(-c2c(Cl)cccc2Cl)c1COc1ccc(N(C)Cc2ccc(OCC(=O)O)cc2)c(C(F)(F)F)n1`, the EC50 at Bile acid receptor [1] (read-out: EC50) was determined as 19 nM; at Bile acid receptor [2], 35 nM; on Bile acid receptor [4] (read-out: EC50), 214 nM. Moreover, the figures for the Efficacy in assay [3], in assay [5] and in assay [6] were 59%, 69% and 90%, respectively.

On to `CC(C)c1onc(-c2c(Cl)cccc2Cl)c1COc1ccc(N(C)Cc2ccc(CCC(=O)O)cc2)c(C(F)(F)F)n1`, for which the EC50 at Bile acid receptor [1] (read-out: EC50) was 16 nM; on Bile acid receptor [2], 17 nM; at Bile acid receptor [4] (read-out: EC50), 35 nM. Further, the Efficacy in assay [3] was 66%; in assay [5], 55%; in assay [6], 96%.

For `CC(C)c1onc(-c2c(Cl)cccc2Cl)c1COc1ccc(N(C)Cc2ccc(C(=O)NS(C)(=O)=O)cc2)c(C(F)(F)F)n1`, the EC50 on Bile acid receptor [1] (read-out: EC50) turned out to be 11 nM; on Bile acid receptor [2] it was 40 nM; on Bile acid receptor [4] (read-out: EC50), 221 nM. Moreover, the Efficacy in assay [3] amounted to 67%; in assay [5] it was 64%; in assay [6], 105%.

On to `CC(C)c1onc(-c2c(Cl)cccc2Cl)c1COc1ccc(N(C)C(=O)c2ccc(C(=O)O)cc2)c(C(F)(F)F)n1`, for which the values for the concentration giving a half-maximal response (EC50) on Bile acid receptor [1] (read-out: EC50), on Bile acid receptor [2] and at Bile acid receptor [4] (read-out: EC50) were 208 nM, 235 nM and 316 nM, respectively. The Efficacy turned out to be 63% in assay [3], 36% in assay [5] and 101% in assay [6].

In the case of `CC(Nc1ccc(C(=O)O)cc1)c1ccc(OCc2c(-c3c(Cl)cccc3Cl)noc2C2CC2)nc1C(F)(F)F` (stereo unspecified), the EC50 on Bile acid receptor [1] (read-out: EC50) turned out to be 202 nM; at Bile acid receptor [2], 101 nM; at Bile acid receptor [4] (read-out: EC50), 333 nM. Also, the Efficacy was found to be 49% in assay [3], 59% in assay [5] and 99% in assay [6].

For `CCN(Cc1ccc(C(=O)O)cc1)c1ccc(OCc2c(-c3c(Cl)cccc3Cl)noc2C2CC2)nc1C(F)(F)F`, the values for the EC50 at Bile acid receptor [1] (read-out: EC50), on Bile acid receptor [2] and on Bile acid receptor [4] (read-out: EC50) were 113 nM, 194 nM and 180 nM, respectively. Also, the values for the Efficacy in assay [3], in assay [5] and in assay [6] were 43%, 54% and 94%, respectively.

`Cc1cc(C(F)(F)F)cc(OCc2c(-c3c(Cl)cccc3Cl)noc2C(C)C)n1`: the concentration giving a half-maximal response (EC50) entry at Bile acid receptor [1] (hek293) is “Not Active”; on Bile acid receptor [2] it was 225 nM; on Bile acid receptor [4] (hek293) it was “Not Active”.

For the molecule `CC(C)c1onc(-c2c(Cl)cccc2Cl)c1COc1ccc(NCc2ccc(C(=O)O)cc2)c(C(F)(F)F)n1`, the values for the half-maximal effective concentration (EC50) at Bile acid receptor [1] (read-out: EC50), at Bile acid receptor [2] and at Bile acid receptor [4] (read-out: EC50) were 101 nM, 162 nM and 398 nM, respectively. Besides, the results for the Efficacy in assay [3], in assay [5] and in assay [6] were 45%, 48% and 97%, respectively.

In the case of `CC(C)c1onc(-c2c(Cl)cccc2Cl)c1COc1ccc(N(C)Cc2ccc(OCCO)cc2)c(C(F)(F)F)n1`, the EC50 at Bile acid receptor [1] (read-out: EC50) was 155 nM; at Bile acid receptor [2], 164 nM; on Bile acid receptor [4] (read-out: EC50), 1150 nM. In addition, the results for the Efficacy in assay [3], in assay [5] and in assay [6] were 59%, 43% and 87%, respectively.

For the molecule `CC(C)c1onc(-c2c(Cl)cccc2Cl)c1COc1ccc(/C=C/c2cccc(C(=O)O)c2)c(Cl)c1`, the Efficacy in assay [3], in assay [5] and in assay [6] was 100% each time.

Turning to `CC(C)c1onc(-c2c(Cl)cccc2Cl)c1COc1ccc(N(C)Cc2cccc(C(=O)O)c2)c(C(F)(F)F)n1`, the EC50 on Bile acid receptor [1] (read-out: EC50) was 6 nM; at Bile acid receptor [2], 12 nM; on Bile acid receptor [4] (read-out: EC50), 80 nM. In addition, the Efficacy in assay [3] is 58%; in assay [5], 89%; in assay [6], 102%.

For the molecule `O=C(O)c1cccc(OCc2ccc(OCc3c(-c4c(Cl)cccc4Cl)noc3C3CC3)nc2C(F)(F)F)c1`, the results for the 50% effective concentration (EC50) at Bile acid receptor [1] (read-out: EC50), at Bile acid receptor [2] and at Bile acid receptor [4] (read-out: EC50) were 33 nM, 43 nM and 151 nM, respectively. The figures for the Efficacy in assay [3], in assay [5] and in assay [6] were 41%, 62% and 98%, respectively.

On to `CC(C)c1onc(-c2c(Cl)cccc2Cl)c1COc1ccc(N(C)C(=O)c2cccc(C(=O)O)c2)c(C(F)(F)F)n1`, for which the 50% effective concentration (EC50) on Bile acid receptor [1] (read-out: EC50) was 537 nM; on Bile acid receptor [2] it was 433 nM; at Bile acid receptor [4] (read-out: EC50) it was 571 nM. Also, the figures for the Efficacy in assay [3], in assay [5] and in assay [6] were 55%, 35% and 110%, respectively.

Take `CC(C)c1onc(-c2c(Cl)cccc2Cl)c1COc1ccc(N(C)Cc2cccc(C(=O)NS(C)(=O)=O)c2)c(C(F)(F)F)n1`: the concentration giving a half-maximal response (EC50) was found to be 20 nM on Bile acid receptor [1] (read-out: EC50), 48 nM on Bile acid receptor [2] and 279 nM on Bile acid receptor [4] (read-out: EC50). In addition, the figures for the Efficacy in assay [3], in assay [5] and in assay [6] were 72%, 59% and 110%, respectively.

On to `CC(C)c1onc(-c2c(Cl)cccc2Cl)c1COc1ccc(N(C)Cc2cccc(C(=O)NCCOP(=O)(O)O)c2)c(C(F)(F)F)n1`, for which the 50% effective concentration (EC50) came out at 216 nM on Bile acid receptor [1] (read-out: EC50), 36 nM at Bile acid receptor [2] and 457 nM at Bile acid receptor [4] (read-out: EC50). The Efficacy was found to be 61% in assay [3], 48% in assay [5] and 114% in assay [6].

For the molecule `O=C(O)c1ccccc1OCc1ccc(OCc2c(-c3c(Cl)cccc3Cl)noc2C2CC2)nc1C(F)(F)F`, the values for the EC50 on Bile acid receptor [1] (read-out: EC50), at Bile acid receptor [2] and at Bile acid receptor [4] (read-out: EC50) were 611 nM, 434 nM and 1710 nM, respectively. Further, the Efficacy is 33% in assay [3], 63% in assay [5] and 91% in assay [6].

On to `Cc1cc(OCc2c(-c3c(Cl)cccc3Cl)[n-][o+]c2C(C)C)ncc1[N+](=O)[O-]`, for which the concentration for a half-maximal effect (EC50) at Bile acid receptor [1] (read-out: EC50) came to 1140 nM; on Bile acid receptor [2], 89 nM; at Bile acid receptor [4] (read-out: EC50), 1000 nM.

For `Cc1nc(OCc2c(-c3c(Cl)cccc3Cl)noc2C(C)C)ccc1N(C)C(=O)c1ccc(C(=O)O)cc1`, the EC50 amounted to 1190 nM at Bile acid receptor [1] (read-out: EC50), 365 nM on Bile acid receptor [2] and 2030 nM on Bile acid receptor [4] (read-out: EC50). Also, the Efficacy in assay [3] was 49%; in assay [5], 21%; in assay [6] it was 95%.

Regarding `O=C(O)c1ccc(OCc2ccc(OCc3c(-c4c(Cl)cccc4Cl)noc3C3CC3)nc2C(F)(F)F)cc1`, the results for the half-maximal effective concentration (EC50) at Bile acid receptor [1] (read-out: EC50), on Bile acid receptor [2] and on Bile acid receptor [4] (read-out: EC50) were 38 nM, 76 nM and 95 nM, respectively. The Efficacy in assay [3] turned out to be 42%; in assay [5], 59%; in assay [6] it was 86%.

Consider `CC(C)c1onc(-c2c(Cl)cccc2Cl)c1COc1cnc(N(C)Cc2cccc(C(=O)O)c2)c(Cl)c1`, for which the EC50 on Bile acid receptor [1] (read-out: EC50) stood at 61 nM; at Bile acid receptor [2] it was 190 nM; on Bile acid receptor [4] (read-out: EC50), 100 nM. For the same molecule, the Efficacy in assay [3] is 54%; in assay [5], 42%; in assay [6] it was 105%.
